{"source": "patent US20050260630A1", "about": "“Rapid methods for detecting methylation of a nucleic acid molecule” (Michigan State University, priority 2004, published 2005)", "key": {"H4IIE rat hepatoma cells": {"tested_on": "H4IIE rat hepatoma cells", "test": "Global DNA methylation by SssI methylase assay in treated H4IIE cells", "conditions": "72 hour incubation"}, "[1]": {"test": "Systolic blood pressure of DOCA-treated uninephrectomized rats", "format": "in vivo, rat", "conditions": "male Sprague-Dawley rats, uninephrectomy, pellet 200 mg/kg, water with 1.0% NaCl and 0.2% KCl; at 28 days (control 112 mmHg)", "description": "Hypertensive rats were created by subjecting male Sprague-Dawley rats, weighing […] uninephrectomy and implanting them with a deoxycorticosterone acetate (DOCA) pellet (200 mg/kg). […] Aortas were removed 28 days after implantation of the DOCA pellet."}, "[2]": {"tested_on": "GC-rich regions of liver genomic DNA", "test": "GC-rich region methylation following phenobarbital treatment of B6C3F1 mice (AP-PCR and capillary electrophoresis, RsaI/HpaII and RsaI/MspI digests)", "format": "in vivo", "conditions": "B6C3F1 mouse liver"}, "[3]": {"tested_on": "genomic DNA from liver cells (GC-rich regions, 5′CCGG 3′ sites)", "test": "Arbitrarily primed PCR and capillary electrophoresis methylation analysis of liver DNA of phenobarbital-treated C57BL/6 mice (RsaI/HpaII digest)", "conditions": "0.05% (w/v) in drinking water for 2 weeks"}, "[4]": {"conditions": "H4IIE cells treated with non-cytolethal concentrations"}, "[5]": {"conditions": "HpaII digest, 0.05% (w/v) in drinking water, 2 weeks"}, "[6]": {"conditions": "MspI digest, 0.05% (w/v) in drinking water, 2 weeks"}, "[7]": {"conditions": "Total of HpaII and MspI digests, 0.05%"}, "[8]": {"conditions": "H4IIE cells treated with cytolethal concentrations"}}, "data": [{"compound": "Nc1ncn([C@H]2C[C@H](O)[C@@H](CO)O2)c(=O)n1", "note": "[dAzaC, 5-aza-2′deoxycytidine]", "values": [{"measurement": "global DNA methylation status", "setting": "H4IIE rat hepatoma cells; [4]", "value": "decrease in global DNA methylation status"}]}, {"compound": "CC(=O)OCC(=O)[C@H]1CC[C@H]2[C@@H]3CCC4=CC(=O)CC[C@]4(C)[C@H]3CC[C@]12C", "note": "[DOCA, deoxycorticosterone acetate]", "values": [{"measurement": "systolic blood pressure", "setting": "[1]", "value": 180, "unit": "mmHg"}]}, {"compound": "CCC1(c2ccccc2)C(=O)NC(=O)NC1=O", "note": "[phenobarbital]", "values": [{"measurement": "Sites of Hypermethylation", "setting": "[2]; [5]", "value": 10, "unit": "sites"}, {"measurement": "Sites of Hypomethylation", "setting": "[2]; [5]", "value": 5, "unit": "sites"}, {"measurement": "Sites of “New” Methylation", "setting": "[2]; [5]", "value": 11, "unit": "sites"}, {"measurement": "TOTAL altered sites", "setting": "[2]; [5]", "value": 26, "unit": "sites"}, {"measurement": "Sites of Hypermethylation", "setting": "[2]; [6]", "value": 8, "unit": "sites"}, {"measurement": "Sites of Hypomethylation", "setting": "[2]; [6]", "value": 8, "unit": "sites"}, {"measurement": "Sites of “New” Methylation", "setting": "[2]; [6]", "value": 11, "unit": "sites"}, {"measurement": "TOTAL altered sites", "setting": "[2]; [6]", "value": 27, "unit": "sites"}, {"measurement": "Sites of Hypermethylation", "setting": "[2]; [7]", "value": 18, "unit": "sites"}, {"measurement": "Sites of Hypomethylation", "setting": "[2]; [7]", "value": 13, "unit": "sites"}, {"measurement": "Sites of “New” Methylation", "setting": "[2]; [7]", "value": 22, "unit": "sites"}, {"measurement": "TOTAL altered sites", "setting": "[2]; [7]", "value": 53, "unit": "sites"}, {"measurement": "sites in murine liver DNA where treatment has affected methylation status", "setting": "[3]; C57BL/6 mice", "value": 10, "unit": "sites"}, {"measurement": "Sites of Hypermethylation", "setting": "[3]; liver DNA of male C57BL/6 mice, t-test α=0.05", "value": 8, "unit": "sites"}]}, {"compound": "CN[C@@H]1C[C@H]2O[C@@](C)([C@@H]1OC)n1c3ccccc3c3c4c(c5c6ccccc6n2c5c31)C(=O)NC4", "note": "[staurosporine, Staurosporine]", "values": [{"measurement": "global DNA methylation status", "setting": "H4IIE rat hepatoma cells; [8]", "value": "decrease in global DNA methylation status"}, {"measurement": "global DNA methylation status", "setting": "H4IIE rat hepatoma cells; [4]", "value": "decrease in global DNA methylation status"}]}, {"compound": "O=c1[nH]cc(F)c(=O)[nH]1", "note": "[5-FU, 5-fluorouracil]", "values": [{"measurement": "global DNA methylation status", "setting": "H4IIE rat hepatoma cells; [8]", "value": "decrease in global DNA methylation status"}]}]}
